One may read the solubility as the dissolved amount per volume that the medium holds. A higher solubility goes with a readily soluble substance.

Consider 1 compound from paper PMC10010340, “The Wnt Pathway Inhibitor RXC004 Blocks Tumor Growth and Reverses Immune Evasion in Wnt Ligand–dependent Cancer Models” (Cancer Research Communications, 2022).

In brackets after ≈: the same amount, converted by molar mass.

One series is described as follows: Aqueous solubility. The series is classed as physicochemical. The note with it: pH 7.4 buffer, 25°C. Here is the method:
Following filtration under positive pressure, compound concentration in solution was assessed by high-performance liquid chromatography coupled to an ultraviolet detector (LC-UV).

In series [1] the test system is small intestine of SCID-Beige mice. The experiment in a line: In vivo toxicity in mice, 28 days (small intestine H&E, Ki67, body weight). The arrangement: species or system mouse (SCID-Beige). Here is the method:
Groups of 9–10 SCID-Beige mice were dosed at Translational Drug Discovery with vehicle, 1.5 mg/kg or 5 mg/kg RXC004 orally twice daily, or 5 mg/kg RXC004 orally once daily, for 28 days. Formulation: 5% DMSO, 95% hydroxyl propyl beta cyclodextrin (25% w/v). Formalin-fixed, paraffin-embedded (FFPE) samples from the small intestine were assessed by hematoxylin and eosin (H&E) and/or Ki67 staining at Histologix.

For another series, the system named is CT26 tumors. The experiment in a line: CT26/BALB/c syngeneic model. As to conditions: RXC004 1.5 or 5 mg/kg once daily; anti-PD-1 10 mg/kg every 3 days. Type of series: in vivo, mouse (BALB/c). Here is the method: CT26/BALB/c syngeneic model was performed at ProQuinase GmbH. Mouse CT26 cells (5 × 10^5) were subcutaneously implanted in the flanks of the immunocompetent female BALB/c mice. Treatment was initiated once tumors reached approximately 50 mm^3. RXC004 was dosed orally at 1.5 or 5 mg/kg (once daily). Anti-PD-1 (BioXCell) or isotype control was dosed every 3 days at 10 mg/kg i.p. Tumor volume was measured over time. For immunophenotyping the tumor infiltrate, tumors from a separate study were resected at day 14, weighed, digested, and stained for flow cytometry analysis by Beckton Dickenson LSR Fortessa. T-cell analysis panel included viability dye, CD45, CD3, CD4, CD8, CD25, and FOXP3.

For the compound `Cc1c(-c2ccnc(C(F)(F)F)c2)ncn1CC(=O)Nc1ccc(-c2cnccn2)cn1` [RXC004, 2-[5-methyl-4-[2-(trifluoromethyl)-4-pyridyl]imidazol-1-yl]-N-(5-pyrazin-2-yl-2-pyridyl)acetamide], the concentration in solution in “Aqueous solubility” (solubility at 24 h) came to 56 µM (≈ 24.6 µg/mL). Moreover, the entries for the “Ki67 proliferation marker in intestinal crypts” value in series [1] (1.5 mg/kg twice daily) and in series [1] (5 mg/kg twice daily) were “no effect on the Ki67 proliferation marker” and “clear decrease”, respectively. Besides, the villi architecture result in series [1] (1.5 mg/kg twice daily) was “No effects”; in series [1] (5 mg/kg once daily), “No effects”; in series [1] (5 mg/kg twice daily, only in some animals), “Disruption of villi architecture”. Besides, in series [1] (5 mg/kg twice daily), the body weight result was “loss of body weight”. Also, in the series on CT26 tumors, the tumor growth entry is given as “limited effect on tumor growth”.
